Literature values in US20160317662A1, “STABLE ORAL PHARMACEUTICAL COMPOSITION” (H[…].A., priority 2013, published 2016).

Conditions: aqueous solutions; state of the art

Which “pH around which solutions are relatively stable” value does the source give for `COc1ccc2c3c1O[C@H]1[C@@H](O)C=C[C@H]4C(C2)N(C)CC[C@@]341` [codeine, codein phosphate hemihydrate] here?
The value was about 3.5.
